Test results reported in the NIST ThermoML archive (doi:10.1016/j.tca.2017.12.013).

Assay: molar heat capacity at constant pressure
Settings: 101.33 kPa, DSC

[Ag+].[Ag+].[S-2] [silver sulfide]
Settings | molar heat capacity at constant pressure [J/K/mol]
617.82 K, Crystal 2 | 86.15
618.82 K, Crystal 2 | 86.13
619.82 K, Crystal 2 | 86.1
620.82 K, Crystal 2 | 86.08
621.82 K, Crystal 2 | 86.05
622.82 K, Crystal 2 | 86.03
623.82 K, Crystal 2 | 86.01
624.82 K, Crystal 2 | 85.99
625.82 K, Crystal 2 | 85.96
626.82 K, Crystal 2 | 85.94
627.82 K, Crystal 2 | 85.92
628.82 K, Crystal 2 | 85.9
629.82 K, Crystal 2 | 85.88
630.82 K, Crystal 2 | 85.86
631.82 K, Crystal 2 | 85.84
632.82 K, Crystal 2 | 85.82
633.82 K, Crystal 2 | 85.8
634.82 K, Crystal 2 | 85.78
635.82 K, Crystal 2 | 85.76
636.82 K, Crystal 2 | 85.74
637.82 K, Crystal 2 | 85.73
638.82 K, Crystal 2 | 85.71
639.82 K, Crystal 2 | 85.7
640.82 K, Crystal 2 | 85.7
641.82 K, Crystal 2 | 85.69
642.82 K, Crystal 2 | 85.67
643.82 K, Crystal 2 | 85.66
644.82 K, Crystal 2 | 85.65
645.82 K, Crystal 2 | 85.64
646.82 K, Crystal 2 | 85.62
647.82 K, Crystal 2 | 85.62
648.82 K, Crystal 2 | 85.61
649.82 K, Crystal 2 | 85.6
650.82 K, Crystal 2 | 85.59
651.82 K, Crystal 2 | 85.57
652.82 K, Crystal 2 | 85.57
653.82 K, Crystal 2 | 85.57
654.82 K, Crystal 2 | 85.57
655.82 K, Crystal 2 | 85.56
656.82 K, Crystal 2 | 85.56
657.82 K, Crystal 2 | 85.56
658.82 K, Crystal 2 | 85.56
659.82 K, Crystal 2 | 85.57
660.82 K, Crystal 2 | 85.56
661.82 K, Crystal 2 | 85.56
662.82 K, Crystal 2 | 85.57
663.82 K, Crystal 2 | 85.57
664.82 K, Crystal 2 | 85.57
665.82 K, Crystal 2 | 85.57
666.82 K, Crystal 2 | 85.57
667.82 K, Crystal 2 | 85.57
668.82 K, Crystal 2 | 85.57
669.82 K, Crystal 2 | 85.58
670.82 K, Crystal 2 | 85.59
671.82 K, Crystal 2 | 85.6
672.82 K, Crystal 2 | 85.61
673.82 K, Crystal 2 | 85.62
674.82 K, Crystal 2 | 85.63
675.82 K, Crystal 2 | 85.64
676.82 K, Crystal 2 | 85.66
677.82 K, Crystal 2 | 85.67
678.82 K, Crystal 2 | 85.69
679.82 K, Crystal 2 | 85.7
680.82 K, Crystal 2 | 85.72
681.82 K, Crystal 2 | 85.74
682.82 K, Crystal 2 | 85.75
683.82 K, Crystal 2 | 85.77
684.82 K, Crystal 2 | 85.79
685.82 K, Crystal 2 | 85.81
686.82 K, Crystal 2 | 85.83
687.82 K, Crystal 2 | 85.85
688.82 K, Crystal 2 | 85.87
689.82 K, Crystal 2 | 85.89
690.82 K, Crystal 2 | 85.92
691.82 K, Crystal 2 | 85.94
692.82 K, Crystal 2 | 85.96
693.82 K, Crystal 2 | 85.99
694.82 K, Crystal 2 | 86.01
695.82 K, Crystal 2 | 86.04
696.82 K, Crystal 2 | 86.06
697.82 K, Crystal 2 | 86.09
698.82 K, Crystal 2 | 86.12
699.82 K, Crystal 2 | 86.14
700.82 K, Crystal 2 | 86.04
701.82 K, Crystal 2 | 86.05
702.82 K, Crystal 2 | 86.06
703.82 K, Crystal 2 | 86.07
704.82 K, Crystal 2 | 86.08
705.82 K, Crystal 2 | 86.09
706.82 K, Crystal 2 | 86.1
707.82 K, Crystal 2 | 86.11
708.82 K, Crystal 2 | 86.12
709.82 K, Crystal 2 | 86.13
710.82 K, Crystal 2 | 86.14
711.82 K, Crystal 2 | 86.15
712.82 K, Crystal 2 | 86.16
713.82 K, Crystal 2 | 86.17
714.82 K, Crystal 2 | 86.18
715.82 K, Crystal 2 | 86.19
716.82 K, Crystal 2 | 86.2
717.82 K, Crystal 2 | 86.21
718.82 K, Crystal 2 | 86.22
719.82 K, Crystal 2 | 86.23
720.82 K, Crystal 2 | 86.24
721.82 K, Crystal 2 | 86.25
722.82 K, Crystal 2 | 86.26
723.82 K, Crystal 2 | 86.26
724.82 K, Crystal 2 | 86.27
725.82 K, Crystal 2 | 86.28
726.82 K, Crystal 2 | 86.29
727.82 K, Crystal 2 | 86.3
728.82 K, Crystal 2 | 86.3
729.82 K, Crystal 2 | 86.31
730.82 K, Crystal 2 | 86.32
731.82 K, Crystal 2 | 86.32
732.82 K, Crystal 2 | 86.33
733.82 K, Crystal 2 | 86.33
734.82 K, Crystal 2 | 86.34
735.82 K, Crystal 2 | 86.34
736.82 K, Crystal 2 | 86.35
737.82 K, Crystal 2 | 86.35
738.82 K, Crystal 2 | 86.35
739.82 K, Crystal 2 | 86.35
740.82 K, Crystal 2 | 86.36
741.82 K, Crystal 2 | 86.36
742.82 K, Crystal 2 | 86.36
743.82 K, Crystal 2 | 86.36
744.82 K, Crystal 2 | 86.36
745.82 K, Crystal 2 | 86.36
746.82 K, Crystal 2 | 86.35
747.82 K, Crystal 2 | 86.35
748.82 K, Crystal 2 | 86.35
749.82 K, Crystal 2 | 86.35
750.82 K, Crystal 2 | 86.34
751.82 K, Crystal 2 | 86.34
752.82 K, Crystal 2 | 86.33
753.82 K, Crystal 2 | 86.33
754.82 K, Crystal 2 | 86.32
755.82 K, Crystal 2 | 86.31
756.82 K, Crystal 2 | 86.31
757.82 K, Crystal 2 | 86.3
758.82 K, Crystal 2 | 86.29
759.82 K, Crystal 2 | 86.28
760.82 K, Crystal 2 | 86.27
761.82 K, Crystal 2 | 86.27
762.82 K, Crystal 2 | 86.26
763.82 K, Crystal 2 | 86.25
764.82 K, Crystal 2 | 86.24
765.82 K, Crystal 2 | 86.23
766.82 K, Crystal 2 | 86.21
767.82 K, Crystal 2 | 86.2
768.82 K, Crystal 2 | 86.19
769.82 K, Crystal 2 | 86.18
770.82 K, Crystal 2 | 86.17
771.82 K, Crystal 2 | 86.16
772.82 K, Crystal 2 | 86.14
773.82 K, Crystal 2 | 86.13
774.82 K, Crystal 2 | 86.12
775.82 K, Crystal 2 | 86.11
776.82 K, Crystal 2 | 86.1
777.82 K, Crystal 2 | 86.08
778.82 K, Crystal 2 | 86.07
779.82 K, Crystal 2 | 86.06
780.82 K, Crystal 2 | 86.05
781.82 K, Crystal 2 | 86.04
782.82 K, Crystal 2 | 86.02
783.82 K, Crystal 2 | 86.01
784.82 K, Crystal 2 | 86
785.82 K, Crystal 2 | 85.99
786.82 K, Crystal 2 | 85.98
787.82 K, Crystal 2 | 85.97
788.82 K, Crystal 2 | 85.96
789.82 K, Crystal 2 | 85.95
790.82 K, Crystal 2 | 85.95
791.82 K, Crystal 2 | 85.94
792.82 K, Crystal 2 | 85.93
793.82 K, Crystal 2 | 85.93
794.82 K, Crystal 2 | 85.92
795.82 K, Crystal 2 | 85.92
796.82 K, Crystal 2 | 85.91
797.82 K, Crystal 2 | 85.91
798.82 K, Crystal 2 | 85.91
799.82 K, Crystal 2 | 85.9
800.82 K, Crystal 2 | 85.91
801.82 K, Crystal 2 | 85.92
802.82 K, Crystal 2 | 85.93
803.82 K, Crystal 2 | 85.94
804.82 K, Crystal 2 | 85.95
805.82 K, Crystal 2 | 85.96
806.82 K, Crystal 2 | 85.97
807.82 K, Crystal 2 | 85.98
808.82 K, Crystal 2 | 85.99
809.82 K, Crystal 2 | 86
810.82 K, Crystal 2 | 86.01
811.82 K, Crystal 2 | 86.02
812.82 K, Crystal 2 | 86.03
813.82 K, Crystal 2 | 86.04
814.82 K, Crystal 2 | 86.05
815.82 K, Crystal 2 | 86.06
816.82 K, Crystal 2 | 86.07
817.82 K, Crystal 2 | 86.08
818.82 K, Crystal 2 | 86.09
819.82 K, Crystal 2 | 86.1
820.82 K, Crystal 2 | 86.11
821.82 K, Crystal 2 | 86.12
822.82 K, Crystal 2 | 86.13
823.82 K, Crystal 2 | 86.14
824.82 K, Crystal 2 | 86.15
825.82 K, Crystal 2 | 86.16
826.82 K, Crystal 2 | 86.17
827.82 K, Crystal 2 | 86.18
828.82 K, Crystal 2 | 86.19
829.82 K, Crystal 2 | 86.2
830.82 K, Crystal 2 | 86.21
831.82 K, Crystal 2 | 86.23
832.82 K, Crystal 2 | 86.24
833.82 K, Crystal 2 | 86.25
834.82 K, Crystal 2 | 86.26
835.82 K, Crystal 2 | 86.27
836.82 K, Crystal 2 | 86.28
837.82 K, Crystal 2 | 86.29
838.82 K, Crystal 2 | 86.3
839.82 K, Crystal 2 | 86.31
840.82 K, Crystal 2 | 86.32
841.82 K, Crystal 2 | 86.33
842.82 K, Crystal 2 | 86.34
843.82 K, Crystal 2 | 86.35
844.82 K, Crystal 2 | 86.36
845.82 K, Crystal 2 | 86.37
846.82 K, Crystal 2 | 86.38
847.82 K, Crystal 2 | 86.39
848.82 K, Crystal 2 | 86.4
849.82 K, Crystal 2 | 86.41
866.21 K, Crystal 1 | 90.42
867.21 K, Crystal 1 | 88.01
868.11 K, Crystal 1 | 89.24
869.11 K, Crystal 1 | 88.03
870.11 K, Crystal 1 | 87.13
871.11 K, Crystal 1 | 86.12
872.11 K, Crystal 1 | 85.33
873.11 K, Crystal 1 | 85.06
874.11 K, Crystal 1 | 84.83
875.11 K, Crystal 1 | 84.62
876.11 K, Crystal 1 | 84.44
877.11 K, Crystal 1 | 84.28
878.11 K, Crystal 1 | 84.13
879.11 K, Crystal 1 | 83.93
880.11 K, Crystal 1 | 83.85
881.11 K, Crystal 1 | 83.77
882.11 K, Crystal 1 | 83.69
883.11 K, Crystal 1 | 83.62
884.11 K, Crystal 1 | 83.55
885.11 K, Crystal 1 | 83.48
886.11 K, Crystal 1 | 83.41
887.11 K, Crystal 1 | 83.34
888.11 K, Crystal 1 | 83.28
889.11 K, Crystal 1 | 83.22
890.11 K, Crystal 1 | 83.17
891.11 K, Crystal 1 | 83.11
892.11 K, Crystal 1 | 83.06
893.11 K, Crystal 1 | 83.01
894.11 K, Crystal 1 | 82.97
895.11 K, Crystal 1 | 82.92
896.11 K, Crystal 1 | 82.88
897.11 K, Crystal 1 | 82.85
898.11 K, Crystal 1 | 82.81
899.11 K, Crystal 1 | 82.78
900.11 K, Crystal 1 | 82.75
901.11 K, Crystal 1 | 82.69
902.11 K, Crystal 1 | 82.64
903.11 K, Crystal 1 | 82.59
904.11 K, Crystal 1 | 82.54
905.11 K, Crystal 1 | 82.49
906.11 K, Crystal 1 | 82.45
907.11 K, Crystal 1 | 82.41
908.11 K, Crystal 1 | 82.37
909.11 K, Crystal 1 | 82.34
910.11 K, Crystal 1 | 82.3
911.11 K, Crystal 1 | 82.27
912.11 K, Crystal 1 | 82.25
913.11 K, Crystal 1 | 82.22
914.11 K, Crystal 1 | 82.2
915.11 K, Crystal 1 | 82.18
916.11 K, Crystal 1 | 82.16
917.11 K, Crystal 1 | 82.15
918.11 K, Crystal 1 | 82.14
919.11 K, Crystal 1 | 82.13
920.11 K, Crystal 1 | 82.13
921.11 K, Crystal 1 | 82.12
922.11 K, Crystal 1 | 82.12
923.11 K, Crystal 1 | 82.12
924.11 K, Crystal 1 | 82.13
925.11 K, Crystal 1 | 82.14
926.11 K, Crystal 1 | 82.15
927.11 K, Crystal 1 | 82.16
928.11 K, Crystal 1 | 82.18
929.11 K, Crystal 1 | 82.2
930.11 K, Crystal 1 | 82.22
931.11 K, Crystal 1 | 82.23
932.11 K, Crystal 1 | 82.25
933.11 K, Crystal 1 | 82.26
934.11 K, Crystal 1 | 82.27
935.11 K, Crystal 1 | 82.29
936.11 K, Crystal 1 | 82.3
937.11 K, Crystal 1 | 82.31
938.11 K, Crystal 1 | 82.32
